Assay results as given in paper PMC11859184, “Synthesis and Evaluation of ^68Ga- and ^177Lu-Labeled [diF-Pro^14]Bombesin(6−14) Analogs for Detection and Radioligand Therapy of Gastrin-Releasing Peptide Receptor-Expressing Cancer” (Pharmaceuticals, 2025).
Where two headings read alike, the source gives them in different places.

Legend:
[1] = Ex vivo biodistribution of 68Ga-labeled tracers in PC-3 tumor-bearing mice; settings: mouse, 1 h pi; for tissue to tissue ratio at 1 h: male, NOD.Cg-Rag1^tm1Mom Il2rg^tm1Wjl/SzJ (NRG), iv, total radioactivity; for tissue uptake at 1 h: intravenous
Experimental: PET/CT imaging and biodistribution studies were conducted using male NOD.Cg-Rag1^tm1Mom Il2rg^tm1Wjl/SzJ (NRG) mice following previously published procedures. The studies were carried out in compliance with the guidelines established by the Canadian Council on Animal Care and approved by Animal Ethics Committee of the University of British Columbia (protocol number A20-0113, approved on 30 September 2022). The mice were anaesthetized and subcutaneously implanted with 5 × 10^6 PC-3 cells (100 µL; 1:1 PBS/Matrigel) behind the left shoulder. PET/CT imaging and biodistribution studies were performed once the tumors reached a diameter of 5–8 mm, typically after approximately 4 weeks of growth.
For ex vivo biodistribution studies, the mice were injected with the ^68Ga-labeled tracer (2–4 MBq) via a lateral caudal tail vein. For blocking [^68Ga]Ga-LW02060, the mice were co-injected with 100 μg of [D-Phe^6,Leu-NHEt^13,des-Met^14]Bombesin(6–14). For blocking [^68Ga]Ga-LW02080, the mice were co-injected with 100 μg of its nonradioactive standard Ga-LW02080. At 1 h pi, the mice were euthanized by CO2 inhalation. Blood and organs/tissues of interest were collected, weighed, and counted using a gamma counter.

[2] = target: T1, GRPR (Homo sapiens, UniProt P30550); assay: Fluorometric intracellular calcium release assay using PC-3 cells; type: cell-based; settings: for intracellular calcium release: 50 nM ligand, n = 4
T1 construct: host or cells: PC-3 cells
T1 sequence (P30550 whole entry): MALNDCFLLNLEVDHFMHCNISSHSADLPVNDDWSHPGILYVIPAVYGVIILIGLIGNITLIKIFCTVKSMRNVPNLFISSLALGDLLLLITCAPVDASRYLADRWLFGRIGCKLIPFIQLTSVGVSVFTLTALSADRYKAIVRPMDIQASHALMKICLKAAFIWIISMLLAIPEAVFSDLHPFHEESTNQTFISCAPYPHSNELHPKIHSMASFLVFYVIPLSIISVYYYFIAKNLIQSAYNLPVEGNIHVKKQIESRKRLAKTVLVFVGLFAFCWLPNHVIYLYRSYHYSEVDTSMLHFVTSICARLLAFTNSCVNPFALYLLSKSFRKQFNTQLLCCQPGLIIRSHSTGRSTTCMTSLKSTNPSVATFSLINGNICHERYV
Experimental: The agonist/antagonist characteristics of LW02060, Ga-LW02060, Lu-LW02060, LW02080, Ga-LW02080, and Lu-LW02080 were determined following published procedures. The PC-3 cells were obtained from ATCC (via Cedarlane, Burlington, ON, Canada). A 96-well clear bottom black plate was seeded with 5 × 10^4 PC-3 cells in 100 μL growth media per well 24 h before the assay. The loading buffer (100 μL/well) containing a calcium-sensitive dye (FLIPR Calcium 6 assay kit from Molecular Devices, San Jose, CA, USA) was added into the 96-well plate, followed by 1 h incubation at 37 °C. The plate was then transferred into a FlexStation 3 microplate reader (Molecular Devices, San Jose, CA, USA). LW02060 (50 nM), Ga-LW02060 (50 nM), Lu-LW02060 (50 nM), LW02080 (50 nM), Ga-LW02080 (50 nM), Lu-LW02080 (50 nM), [D-Phe^6,Leu-NHEt^13,des-Met^14]Bombesin(6–14) (50 nM, antagonist control), bombesin (50 nM, agonist control), adenosine triphosphate (ATP, 50 nM, positive control), or DPBS (blank control) was added, and the fluorescent signals were measured for 2 min (λEx = 485 nm; λEm = 525 nm; n = 4). The relative fluorescent units (RFU = max − min) were calculated to determine the agonistic/antagonistic characteristics of LW02060, Ga-LW02060, Lu-LW02060, LW02080, Ga-LW02080, and Lu-LW02080, respectively.

CC(C)C[C@@H](CN1CC(F)(F)C[C@H]1C(N)=O)NC(=O)[C@H](Cc1c[nH]cn1)NC(=O)CN(C)C(=O)[C@@H](NC(=O)[C@H](C)NC(=O)[C@H](Cc1c[nH]c2ccccc12)NC(=O)[C@H](CCC(N)=O)NC(=O)[C@@H](Cc1ccccc1)NC(=O)CN1CCC(NC(=O)CN2CCN(CC(=O)O)CCN(CC(=O)O)CCN(CC(=O)O)CC2)CC1)C(C)C [[^68Ga]Ga-LW02080, metal not drawn]
tissue to tissue ratio at 1 h ([1]; tumor/blood, blocked (100 µg blocking agent co-injected), read-out: Tumor/blood uptake ratio): 0.87 ± 0.15
tissue to tissue ratio at 1 h ([1]; tumor/blood, n = 4, read-out: Tumor/blood uptake ratio): 22.7 ± 4.13
tissue to tissue ratio at 1 h ([1]; tumor/bone, blocked (100 µg blocking agent co-injected), read-out: Tumor/bone uptake ratio): 5.52 ± 0.68
tissue to tissue ratio at 1 h ([1]; tumor/bone, n = 4, read-out: Tumor/bone uptake ratio): 69.8 ± 13.7
tissue to tissue ratio at 1 h ([1]; tumor/kidney, blocked (100 µg blocking agent co-injected), read-out: Tumor/kidney uptake ratio): 0.14 ± 0.03
tissue to tissue ratio at 1 h ([1]; tumor/kidney, n = 4, read-out: Tumor/kidney uptake ratio): 3.18 ± 0.75
tissue to tissue ratio at 1 h ([1]; tumor/muscle, blocked (100 µg blocking agent co-injected), read-out: Tumor/muscle uptake ratio): 3.61 ± 0.14
tissue to tissue ratio at 1 h ([1]; tumor/muscle, n = 4, read-out: Tumor/muscle uptake ratio): 117 ± 18.6
tissue to tissue ratio at 1 h ([1]; tumor/pancreas, blocked (100 µg blocking agent co-injected), read-out: Tumor/pancreas uptake ratio): 3.47 ± 0.64
tissue to tissue ratio at 1 h ([1]; tumor/pancreas, n = 4, read-out: Tumor/pancreas uptake ratio): 18.4 ± 2.86
tissue uptake at 1 h ([1]; PC-3 tumor, 100 ug, blocked (100 µg blocking agent co-injected), read-out: PC-3 tumor uptake): 1.71 ± 0.39 %ID/g
tissue uptake at 1 h ([1]; PC-3 tumor, n = 4, read-out: PC-3 tumor uptake): 7.36 ± 1.33 %ID/g
tissue uptake at 1 h ([1]; adrenal glands, 100 ug, blocked (100 µg blocking agent co-injected), read-out: Adrenal glands uptake): 0.69 ± 0.05 %ID/g
tissue uptake at 1 h ([1]; adrenal glands, n = 4, read-out: Adrenal glands uptake): 0.39 %ID/g
tissue uptake at 1 h ([1]; blood, 100 ug, blocked (100 µg blocking agent co-injected), read-out: Blood uptake): 2.02 ± 0.7 %ID/g
tissue uptake at 1 h ([1]; blood, n = 4, read-out: Blood uptake): 0.33 ± 0.08 %ID/g
tissue uptake at 1 h ([1]; bone, 100 ug, blocked (100 µg blocking agent co-injected), read-out: Bone uptake): 0.31 ± 0.06 %ID/g
tissue uptake at 1 h ([1]; bone, n = 4, read-out: Bone uptake): 0.11 ± 0.02 %ID/g
tissue uptake at 1 h ([1]; brain, 100 ug, blocked (100 µg blocking agent co-injected), read-out: Brain uptake): 0.06 ± 0.03 %ID/g
tissue uptake at 1 h ([1]; brain, n = 4, read-out: Brain uptake): 0.01 %ID/g
tissue uptake at 1 h ([1]; fat, 100 ug, blocked (100 µg blocking agent co-injected), read-out: Fat uptake): 0.25 ± 0.04 %ID/g
tissue uptake at 1 h ([1]; fat, n = 4, read-out: Fat uptake): 0.03 ± 0.01 %ID/g
tissue uptake at 1 h ([1]; heart, 100 ug, blocked (100 µg blocking agent co-injected), read-out: Heart uptake): 0.66 ± 0.18 %ID/g
tissue uptake at 1 h ([1]; heart, n = 4, read-out: Heart uptake): 0.11 ± 0.03 %ID/g
tissue uptake at 1 h ([1]; kidneys, 100 ug, blocked (100 µg blocking agent co-injected), read-out: Kidneys uptake): 11.2 ± 1.02 %ID/g
tissue uptake at 1 h ([1]; kidneys, n = 4, read-out: Kidneys uptake): 2.42 ± 0.81 %ID/g
tissue uptake at 1 h ([1]; large intestine, 100 ug, blocked (100 µg blocking agent co-injected), read-out: Large intestine uptake): 0.33 ± 0.1 %ID/g
tissue uptake at 1 h ([1]; large intestine, n = 4, read-out: Large intestine uptake): 0.3 ± 0.09 %ID/g
tissue uptake at 1 h ([1]; liver, 100 ug, blocked (100 µg blocking agent co-injected), read-out: Liver uptake): 1.05 ± 0.39 %ID/g
tissue uptake at 1 h ([1]; liver, n = 4, read-out: Liver uptake): 0.31 ± 0.07 %ID/g
tissue uptake at 1 h ([1]; lungs, 100 ug, blocked (100 µg blocking agent co-injected), read-out: Lungs uptake): 1.52 ± 0.44 %ID/g
tissue uptake at 1 h ([1]; lungs, n = 4, read-out: Lungs uptake): 0.28 ± 0.05 %ID/g
tissue uptake at 1 h ([1]; muscle, 100 ug, blocked (100 µg blocking agent co-injected), read-out: Muscle uptake): 0.53 ± 0.06 %ID/g
tissue uptake at 1 h ([1]; muscle, n = 4, read-out: Muscle uptake): 0.06 ± 0.02 %ID/g
tissue uptake at 1 h ([1]; pancreas, 100 ug, blocked (100 µg blocking agent co-injected), read-out: Pancreas uptake): 0.51 ± 0.18 %ID/g
tissue uptake at 1 h ([1]; pancreas, n = 4, read-out: Pancreas uptake): 0.38 ± 0.04 %ID/g
tissue uptake at 1 h ([1]; small intestine, 100 ug, blocked (100 µg blocking agent co-injected), read-out: Small intestine uptake): 1.04 ± 0.48 %ID/g
tissue uptake at 1 h ([1]; small intestine, n = 4, read-out: Small intestine uptake): 0.24 ± 0.07 %ID/g
tissue uptake at 1 h ([1]; spleen, 100 ug, blocked (100 µg blocking agent co-injected), read-out: Spleen uptake): 0.56 ± 0.17 %ID/g
tissue uptake at 1 h ([1]; spleen, n = 4, read-out: Spleen uptake): 0.18 ± 0.05 %ID/g
tissue uptake at 1 h ([1]; stomach, 100 ug, blocked (100 µg blocking agent co-injected), read-out: Stomach uptake): 0.38 ± 0.2 %ID/g
tissue uptake at 1 h ([1]; stomach, n = 4, read-out: Stomach uptake): 0.08 ± 0.04 %ID/g
tissue uptake at 1 h ([1]; testes, 100 ug, blocked (100 µg blocking agent co-injected), read-out: Testes uptake): 0.63 ± 0.2 %ID/g
tissue uptake at 1 h ([1]; testes, n = 4, read-out: Testes uptake): 0.12 ± 0.03 %ID/g

DOTA-Pip-[D-Phe^6,NMe-Gly^11,Leu^13(ψ)diF-Pro^14]Bombesin(6–14) [LW02080]
agonist/antagonist characteristics [2]: GRPR antagonists
intracellular calcium release [2]: 11.4 ± 0.32 RFU

DOTA-Pip-[D-Phe^6,Tle^10,NMe-His^12,diF-Pro^14]Bombesin(6–14) [LW02060]
agonist/antagonist characteristics [2]: GRPR agonists
intracellular calcium release [2]: 377 ± 41.9 RFU
